# Laboratory results from patent US9238797B2, “Method for production of pluripotent stem cell” (TAKARA BIO INC., priority 2008, dated 2016).
# Assays:
# Type in all cases: cell-based
# [1] = system: human skin fibroblast; assay: iPS cell colony induction, Retronectin or polybrene with changed virus amount (Example 10); conditions: 28th day of culture, N=2
# Experimental: Regarding gene transfer with a retrovirus vector, an amount of retrovirus was further changed in the condition under which each of Retronectin or polybrene was used, and induction of a pluripotent stem cell was carried out, followed by comparison. According to the same manner as that of Example 7-(2), gene transfer was carried out, provided that a group in which a virus solution is diluted 10-fold or 100-fold with 10F-DMEM was set. […] According to the same manner as that of Example 7-(4), the gene-introduced cell was seeded on a feeder cell, and culturing was continued, provided that the gene-introduced cell was seeded by each 2×10^4 cells. […] In addition, the number in the Table indicates an average value of N=2.
# [2] = system: human skin fibroblast derived from four different donors; assay: Gene transfer efficiency, double positive cells, fibroblast of four donors, gene transfer two times (Example 12); conditions: sixth day of culture, N=2
# Experimental: Gene transfer efficiencies using a plurality of retrovirus vectors with Retronectin or polybrene were further compared. Introduction of a fluorescent protein gene was carried out targeting human skin fibroblast derived from four different donors, using a method of performing gene transfer two times as in the pluripotent stem cell inducing experiment. In the present Example, the cell A indicates derived from a person, the cell B indicates derived from a person, the cell C indicates derived from a person, and the cell D indicates derived from a person (all manufactured by Lonza).
# According to the same manner as that of Example 8-(1), immobilization of Retronectin on a culture plate was carried out.
# According to the same manner as that of Example 8-(2), gene transfer was carried out (day 0 of culturing), provided that a group in which a virus solution was diluted 10-fold, 100-fold or 1000-fold with 10F-DMEM was set.
# According to the same manner as that of Example 8-(3), a gene transfer efficiency was measured on the sixth day of culture. […] In addition, the number in the Table indicates an average value of N=2.
# [3] = system: human skin fibroblast; assay: AcGFP1 positive cell rate by flow cytometer (Example 19)
# Experimental: As an index showing an existence rate of a cell in which each retrovirus vector together with a gene encoding a nuclear reprogramming factor (iPS cell inducing factor) was inserted, gene transfer of an AcGFP1 gene was carried out, and a pluripotent stem cell (iPS cell) induction efficiency and an AcGFP1 positive cell rate, in a gene transfer method with Retronectin (Retronectin method) and a gene transfer method with polybrene (polybrene method) were compared. In addition, regarding partial condition, quantitation of a copy number of a retrovirus vector inserted into a genome was carried out, and comparison of a copy number and a pluripotent stem cell (iPS cell) induction efficiency was carried out.
# According to the same manner as that of Example 1-(1), immobilization of Retronectin on a culture plate was carried out, provided that, for a plate coated with Retronectin, a non-treatment 12-well plate was used, and each 1 mL of a Retronectin solution (25 μg/mL) was added to each well.
# The virus solutions prepared in Preparation Example 2 and Preparation Example 3 were mixed at an equal amount in a combination of Table 24, the solution in which the virus solution was diluted 10-fold and 100-fold with 10F-DMEM was prepared regarding the condition A, and the solution in which the virus solution was diluted 10-fold was prepared regarding the condition B, and these were used in gene transfer. Gene transfer was carried out according to the same manner as that of Example 7-(2), provided that 1 mL of PSB was used for washing a plate with PBS in the Retronectin method, the cell number used in infection by the Retronectin method and the polybrene method was 4×10^4 cells/well, and a retrovirus vector solution was 1 mL/well.
# According to the same manner as that of Example 10-(4), seeding of the gene-introduced cell on a feeder cell was carried out, provided that an AcGFP1 positive cell rate was measured with a flow cytometer using remaining cells which were not used in seeding on the feeder cell.
# [4] = system: human adult skin fibroblast; assay: iPS cell colony induction using a lentivirus vector, Retronectin or polybrene (Example 31); conditions: 32nd day of culture
# Experimental: According to the same manner as that of Example 1-(1), immobilization of Retronectin on a culture plate was carried out, provided that, as a plate to be coated with Retronectin, a non-treatment 12-well plate was used, and each 1 mL of a Retronectin solution (25 μg/mL) was added to each well.
# Each 500 μL of each mixed virus solution prepared in Preparation Example 5 was added to a 12-well Retronectin immobilization culture plate, or a 12-well culture plate, and each 500 μL of human adult skin fibroblast suspended in 10F-DMEM to 1×10^5 cells/mL was further added to each well. Regarding polybrene infection condition, polybrene was added to a final concentration of 8 μg/mL. […] (day 0 of culturing).
# On the sixth day of culture, according to the same manner as that of Example 5-(4), the gene-introduced cell was seeded on a feeder cell, and culturing was continued. […] During this, the medium was exchanged at 2 days interval.
# In addition, regarding the condition A, the results of only one well are shown.
substance,measurement,setting,value
"Retronectin: fragment of fibronectin having a heparin-II binding region (registered trademark, CH-296, TAKARA BIO INC.)",Number of iPS cell colonies,[1]; virus 10-fold dilution,12.0
same,Number of iPS cell colonies,[1]; virus 100-fold dilution,17.5
same,Number of iPS cell colonies,[1]; virus solution undiluted,6.5
same,Ratio of double positive cells,"[2]; Cell A, Virus 10-fold dilution",55.9
same,Ratio of double positive cells,"[2]; Cell A, Virus 100-fold dilution",61.6
same,Ratio of double positive cells,"[2]; Cell A, Virus 1000-fold dilution",51.9
same,Ratio of double positive cells,"[2]; Cell A, Virus stock solution",42.5
same,Ratio of double positive cells,"[2]; Cell B, Virus 10-fold dilution",49.7
same,Ratio of double positive cells,"[2]; Cell B, Virus 100-fold dilution",57.7
same,Ratio of double positive cells,"[2]; Cell B, Virus 1000-fold dilution",48.7
same,Ratio of double positive cells,"[2]; Cell B, Virus stock solution",35.9
same,Ratio of double positive cells,"[2]; Cell C, Virus 10-fold dilution",54.6
same,Ratio of double positive cells,"[2]; Cell C, Virus 100-fold dilution",60.2
same,Ratio of double positive cells,"[2]; Cell C, Virus 1000-fold dilution",46.4
same,Ratio of double positive cells,"[2]; Cell C, Virus stock solution",42.1
same,Ratio of double positive cells,"[2]; Cell D, Virus 10-fold dilution",54.2
same,Ratio of double positive cells,"[2]; Cell D, Virus 100-fold dilution",63.2
same,Ratio of double positive cells,"[2]; Cell D, Virus 1000-fold dilution",51.0
same,Ratio of double positive cells,"[2]; Cell D, Virus stock solution",38.4
same,AcGFP1 positive rate,"[3]; vector combination Condition A, virus 10-fold dilution",82.8%
same,AcGFP1 positive rate,"[3]; vector combination Condition A, virus 100-fold dilution",94.1%
same,AcGFP1 positive rate,"[3]; vector combination Condition B, virus 10-fold dilution",88%
same,"number of a pluripotent stem cell (iPS cell) colony, Well 1",[4]; 20-fold concentrated virus,3
same,"number of a pluripotent stem cell (iPS cell) colony, Well 2",[4]; 20-fold concentrated virus,2
same,"number of a pluripotent stem cell (iPS cell) colony, Well 1",[4]; virus without concentration,5
